Measurements taken from PubChem BioAssay AID2060888 (Molecular Pharmacology Branch, DTP, NCI, 2025).
Values belong to the compound of their own block, whether it stands above or below them.

Tested on: 695427-040-R-J1-PDC complex spheroid viability
Assay: Anticancer human tumor 695427-040-R-J1-PDC patient-derived colon adenocarcinoma cell line growth inhibition [RAS]
Conditions: for IC50: curve of first compound; for viability, T/C: stronger effect = lower value
Excerpt: RAS pathway inhibitors in Combinations in Complex Spheroids
A high-throughput screen of multi-cell type tumor spheroids was designed to identify active combinations of RAS pathway inhibitors and targeted small molecules. Complex spheroids include a stromal component modeled by human endothelial cells (HUVEC) and fibroblasts modeled by human mesenchymal stem cells (MSCs). The concentration ranges selected for each drug and investigational agent were based upon clinically achievable concentrations if the clinical Cmax of the agent was known.
Compounds. The drugs and investigational agents: abemaciclib (NSC768073), cobimetinib (NSC768068), divarasib (GDC6063, NSC841802), docetaxel (NSC628503), GDC-1971 (RLY-1971, NSC841576), gemcitabine (NSC613327), inavolisib (NSC800729), ipatasertib (NSC767898), KB-0742 (NSC834161), MRTX-1133 (NSC836407), osimertinib (NSC779217), RMC-4630 (NSC839698), RMC-6236 (NSC851965), RMC-6291 (NSC852671), Ro-3306 (NSC812927), sapanisertib (NSC764658), SN-38 (NSC673596), staurosporine (NSC755774), SY5609 (NSC837396), and tovorafenib (DAY101, NSC766906), were obtained from the National Cancer Institute (NCI) Developmental Therapeutics Program Chemical Repository. The FDA-approved anticancer drug set is available from the NCI Developmental Therapeutics Program. […] The stock solutions were prepared in dimethyl sulfoxide (DMSO, Sigma-Aldrich, St. Louis, MO, cat. D2650) at 800-fold the tested concentration and stored at -70 degrees C prior to their use. All drugs and investigational agents were tested over a range starting from a high concentration at or near the clinical Cmax and decreasing in half-log increments. If the clinical Cmax for an agent had not been determined, the highest concentration tested was 10 microM.
Cell Culture. All cells were maintained in an incubator at 37 degrees C and 5% CO2 with 95% humidity. The PDC lines were cultured according to standard operating procedures established by the NCI PDMR. All PDCs were thawed and cultured in Matrigel-coated flasks prepared with a working solution of 1X Ham's F-12 nutrient mix, without supplementation (Invitrogen, Waltham, MA, cat. 11765054), 100 U/mL penicillin-streptomycin (Invitrogen, cat. 15140122), and 2.5% Matrigel (Corning Inc., Corning, NY, cat. 354248) for the first three passages. The 362531-283-R-J2-PDC and 782815-120-R-J1-PDC lines were cultured in 6C/Colon 1B media, which includes advanced DMEM/F-12 (Thermo Fisher Scientific, cat. 12634028), 10 mM HEPES (Thermo Fisher Scientific, cat. 15630080), 1X GlutaMAX supplement (Thermo Fisher Scientific, cat. 35050061), 0.1 mg/mL primocin (InvivoGen, San Diego, CA, cat. ant-pm-2), 10% defined fetal bovine serum, heat inactivated (HyClone Laboratories Inc., Logan, UT, cat. SH30070.03HI), 50% L-WRN conditioned media (ATCC, cat. CRL-3276), 1.25 mM N-Acetyl-L-cysteine (Sigma-Aldrich, cat. A9165), 10 mM nicotinamide (Sigma-Aldrich, cat. N0636), 1X B-27 supplement (Thermo Fisher Scientific, cat. 17504044), 1X N-2 supplement (Thermo Fisher Scientific, cat. 17502048), 50 ng/mL human EGF (Thermo Fisher Scientific, cat. PHG0311), and 10 microM Y-27632 dihydrochloride (Tocris Bioscience, cat. 1254). The K12877-001-R-J1-PDC line was cultured in 6I media, which includes all 6C/Colon 1B media plus 10 ng/mL human FGF-10 (PeproTech, cat. 100-26), 1 ng/mL human FGF-2 (PeproTech, cat. 100-18B), 1 µM prostaglandin E2 (Tocris Bioscience, cat. 2296), […] hydrocortisone (Sigma-Aldrich, cat. H4001), and […] bovine insulin (Sigma-Aldrich, cat. I6634). The K86415-001-R-J1-PDC line was cultured in 6D media, which includes all 6C/Colon 1B media components minus the L-WRN conditioned media. The 485176-168-R4-J1-PDC was cultured in PANC media, which includes all 6C/Colon 1B media plus 100 ng/mL human FGF-10 (PeproTech, cat. 100-26), 500 nM SB-431542 (Selleckchem, cat. S1067), and 10 nM gastrin (Tocris Bioscience, cat. 3006). […]
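Also: viability read after seven days of drug exposure.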
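For viability, T/C in this document: 100% = DMSO vehicle control viability.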

IC50 (second compound 0.000949 µM): > 10000 nM | IC50 (second compound 0.003 µM): > 10000 nM | IC50 (second compound 0.00949 µM): > 10000 nM | IC50 (second compound 0.03 µM): 4610 nM | IC50 (second compound 0.0949 µM): < 31.6 nM | IC50 (second compound 0.3 µM): < 31.6 nM
Compound: CC1(O)CCCC1n1c(=O)c(C(F)F)cc2cnc(NC3CCN(S(C)(=O)=O)CC3)nc21 (centres undefined) + CCn1c(-c2cc(N3CCN(C)CC3)cnc2C(C)OC)c2c3cc(ccc31)-c1csc(n1)CC(NC(=O)C1CC1C)C(=O)N1CCCC(N1)C(=O)OCC(C)(C)C2
viability, T/C (second compound 0.000949 µM, first compound 0.0316 µM): 112% | viability, T/C (second compound 0.000949 µM, first compound 0.1 µM): 74.6% | viability, T/C (second compound 0.000949 µM, first compound 0.316 µM): 93.8% | viability, T/C (second compound 0.000949 µM, first compound 1 µM): 105% | viability, T/C (second compound 0.000949 µM, first compound 3.16 µM): 114% | viability, T/C (second compound 0.000949 µM, first compound 10 µM): 74.5% | viability, T/C (second compound 0.003 µM, first compound 0.0316 µM): 87.3% | viability, T/C (second compound 0.003 µM, first compound 0.1 µM): 92.8% | viability, T/C (second compound 0.003 µM, first compound 0.316 µM): 91.8% | viability, T/C (second compound 0.003 µM, first compound 1 µM): 92.7% | viability, T/C (second compound 0.003 µM, first compound 3.16 µM): 109% | viability, T/C (second compound 0.003 µM, first compound 10 µM): 71% | viability, T/C (second compound 0.00949 µM, first compound 0.0316 µM): 95.7% | viability, T/C (second compound 0.00949 µM, first compound 0.1 µM): 80.8% | viability, T/C (second compound 0.00949 µM, first compound 0.316 µM): 85.2% | viability, T/C (second compound 0.00949 µM, first compound 1 µM): 78.3% | viability, T/C (second compound 0.00949 µM, first compound 3.16 µM): 81.8% | viability, T/C (second compound 0.00949 µM, first compound 10 µM): 52% | viability, T/C (second compound 0.03 µM, first compound 0.0316 µM): 62.4% | viability, T/C (second compound 0.03 µM, first compound 0.1 µM): 71.5% | viability, T/C (second compound 0.03 µM, first compound 0.316 µM): 59.1% | viability, T/C (second compound 0.03 µM, first compound 1 µM): 57.1% | viability, T/C (second compound 0.03 µM, first compound 3.16 µM): 59.8% | viability, T/C (second compound 0.03 µM, first compound 10 µM): 32.7% | viability, T/C (second compound 0.0949 µM, first compound 0.0316 µM): 44.2% | viability, T/C (second compound 0.0949 µM, first compound 0.1 µM): 42.1% | viability, T/C (second compound 0.0949 µM, first compound 0.316 µM): 50.3% | viability, T/C (second compound 0.0949 µM, first compound 1 µM): 50.8% | viability, T/C (second compound 0.0949 µM, first compound 3.16 µM): 50.9% | viability, T/C (second compound 0.0949 µM, first compound 10 µM): 25.6% | viability, T/C (second compound 0.3 µM, first compound 0.0316 µM): 40.5% | viability, T/C (second compound 0.3 µM, first compound 0.1 µM): 42% | viability, T/C (second compound 0.3 µM, first compound 0.316 µM): 41.2% | viability, T/C (second compound 0.3 µM, first compound 1 µM): 36.5% | viability, T/C (second compound 0.3 µM, first compound 3.16 µM): 44.2% | viability, T/C (second compound 0.3 µM, first compound 10 µM): 25.2%

IC50 (second compound 0.0316 µM): > 10000 nM | IC50 (second compound 0.1 µM): > 10000 nM | IC50 (second compound 0.316 µM): 1980 nM | IC50 (second compound 1 µM): 477 nM | IC50 (second compound 3.16 µM): 36.3 nM | IC50 (second compound 10 µM): < 31.6 nM
Compound: Cc1nc(N2CCC3(CC2)COC(C)C3N)c(CO)nc1Sc1ccnc(N)c1Cl (centres undefined) + C#Cc1c(F)ccc2cc(O)cc(-c3ncc4c(N5CC6CCC(C5)N6)nc(OCC56CCCN5CC(F)C6)nc4c3F)c12
viability, T/C (second compound 0.0316 µM, first compound 0.0316 µM): 92.3% | viability, T/C (second compound 0.0316 µM, first compound 0.1 µM): 80.5% | viability, T/C (second compound 0.0316 µM, first compound 0.316 µM): 70.7% | viability, T/C (second compound 0.0316 µM, first compound 1 µM): 75% | viability, T/C (second compound 0.0316 µM, first compound 3.16 µM): 70.5% | viability, T/C (second compound 0.0316 µM, first compound 10 µM): 51.1% | viability, T/C (second compound 0.1 µM, first compound 0.0316 µM): 89.2% | viability, T/C (second compound 0.1 µM, first compound 0.1 µM): 78.1% | viability, T/C (second compound 0.1 µM, first compound 0.316 µM): 79.2% | viability, T/C (second compound 0.1 µM, first compound 1 µM): 60.9% | viability, T/C (second compound 0.1 µM, first compound 3.16 µM): 60.2% | viability, T/C (second compound 0.1 µM, first compound 10 µM): 51.9% | viability, T/C (second compound 0.316 µM, first compound 0.0316 µM): 78.7% | viability, T/C (second compound 0.316 µM, first compound 0.1 µM): 66.2% | viability, T/C (second compound 0.316 µM, first compound 0.316 µM): 56.7% | viability, T/C (second compound 0.316 µM, first compound 1 µM): 57.1% | viability, T/C (second compound 0.316 µM, first compound 3.16 µM): 50.5% | viability, T/C (second compound 0.316 µM, first compound 10 µM): 39.2% | viability, T/C (second compound 1 µM, first compound 0.0316 µM): 65.8% | viability, T/C (second compound 1 µM, first compound 0.1 µM): 63.2% | viability, T/C (second compound 1 µM, first compound 0.316 µM): 51.2% | viability, T/C (second compound 1 µM, first compound 1 µM): 42.1% | viability, T/C (second compound 1 µM, first compound 3.16 µM): 40.4% | viability, T/C (second compound 1 µM, first compound 10 µM): 26% | viability, T/C (second compound 3.16 µM, first compound 0.0316 µM): 51.3% | viability, T/C (second compound 3.16 µM, first compound 0.1 µM): 44% | viability, T/C (second compound 3.16 µM, first compound 0.316 µM): 38.1% | viability, T/C (second compound 3.16 µM, first compound 1 µM): 32.6% | viability, T/C (second compound 3.16 µM, first compound 3.16 µM): 23.5% | viability, T/C (second compound 3.16 µM, first compound 10 µM): 16.2% | viability, T/C (second compound 10 µM, first compound 0.0316 µM): 33.2% | viability, T/C (second compound 10 µM, first compound 0.1 µM): 27.7% | viability, T/C (second compound 10 µM, first compound 0.316 µM): 27.3% | viability, T/C (second compound 10 µM, first compound 1 µM): 18.6% | viability, T/C (second compound 10 µM, first compound 3.16 µM): 15.8% | viability, T/C (second compound 10 µM, first compound 10 µM): 10.3%
